# Results from US9889146B2, “Benzoxaborole compounds and uses thereof” (priority 2012, dated 2018).
# Where two headings read alike, the source gives them in different places.
# Columns and labels:
# Assay type in all cases: cell-based
# Enterobacteriaceae = experiment: organism not typed; settings: Enterobacteriaceae, 2029 isolates; read-out: MIC90
# E. coli (WT) = experiment: microbe, parasite or virus in culture; settings: Escherichia coli; E. coli (WT), 214 isolates; read-out: MIC90
# E. coli (ESBL) = experiment: microbe, parasite or virus in culture; settings: Escherichia coli
# Klebsiella spp. (WT) = experiment: microbe, parasite or virus in culture; settings: Klebsiella spp. (WT), 159 isolates; read-out: MIC90
# Klebsiella spp. (ESBL) = experiment: microbe, parasite or virus in culture; settings: Klebsiella
# Klebsiella spp. (KPC) = experiment: microbe, parasite or virus in culture; settings: Klebsiella
# [1] = test system: Enterobacter aerogenes (WT); experiment: microbe, parasite or virus in culture; settings: Klebsiella aerogenes; Enterobacter aerogenes (WT), 199 isolates; read-out: MIC90
# [2] = test system: Enterobacter aerogenes (AmpC); experiment: microbe, parasite or virus in culture; settings: Klebsiella aerogenes
# [3] = test system: Enterobacter cloacae (WT); experiment: microbe, parasite or virus in culture; settings: 202 isolates, read-out: MIC90
# [4] = test system: Enterobacter cloacae (AmpC); experiment: microbe, parasite or virus in culture; settings: Enterobacter cloacae
# [5] = test system: Citrobacter freundii (AmpC); experiment: microbe, parasite or virus in culture; settings: Citrobacter freundii
# [6] = test system: Morganella morganii (AmpC); experiment: microbe, parasite or virus in culture; settings: Morganella morganii
# Proteus mirabilis (WT) = experiment: microbe, parasite or virus in culture; settings: Proteus mirabilis (WT), 235 isolates; read-out: MIC90
# Proteus vulgaris (WT) = experiment: microbe, parasite or virus in culture; settings: Proteus vulgaris (WT), 41 isolates; read-out: MIC90
# Providencia spp.(all) = experiment: microbe, parasite or virus in culture; settings: Providencia spp.(all), 68 isolates; read-out: MIC90
# S. marcescens (AmpC) = experiment: microbe, parasite or virus in culture; settings: Serratia marcescens
# P. aeruginosa = experiment: In vitro activity against P. aeruginosa clinical isolates; settings: P. aeruginosa, 2,008 clinical isolates; GSK2251052 based on potential susceptible breakpoint of ≦4 μg/mL
# Method: GSK2251052 was tested for activity against P. aeruginosa, and its activity was compared to other antibiotics of known activity. The results are shown below in Tables 2a and 2b. Of 2,008 clinical isolates tested (from 2009-2010 subjects, of which 40% were from North America) greater than 90% were susceptible to GSK2251052 based on a potential susceptible breakpoint of ≦4 μg/mL.
# E. coli ATCC 25922 = experiment: Spontaneous frequency of resistance; settings: 24 h
# Method: (§1) Spontaneous Resistance Frequency was determined in vitro for GSK2251052 and the resistance mutants in E. coli ATCC 25922, K. pneumoniae ATCC 13883, and P. aeruginosa ATCC 27853 strains were characterized. GSK2251052 was prepared as described in U.S. Pat. No. 7,816,344 (the entire contents of which are hereby incorporated by reference herein). LB broth, Mueller Hinton II broth (adjusted), and Difco noble agar were obtained from Becton Dickinson (Cockeysville, Md., USA). M9 minimal broth containing 1×M9 salt, 0.5 μg/ML thiamine, 1 mM MgSO4, 0.1 mM CaCl2, 2% glucose, was obtained from Teknova (Hollister, Calif., USA). Antibacterial agents ciprofloxacin, ceftazidime, chloramphenicol, gentamycin, kanamycin, polymixin B, tobramycin and trimethoprim, and amino acids were obtained from Sigma Chemicals (St. Louis, Mo., USA). Strains were obtained from ATCC (Manassas, Va., USA).
# (§2) Selection of resistance to GSK2251052 was attempted by spreading various amounts of bacteria onto MHBII noble agar plates containing 4×MIC (minimum inhibitory concentration) or 10×MIC of GSK2251052. Colonies were counted after 24 hours and 48 hours incubation at 37° C. The resistance of these colonies was confirmed by their ability to grow on plates containing GSK2251052 at either 4× or 10×MIC. Frequency of resistance was determined by dividing the number of resistant mutants by the total number of cells plated as determined by plating dilutions of the overnight culture on LB plates.
# K. pneumoniae ATCC 13883 = experiment: Spontaneous frequency of resistance; settings: 24 h
# Method: as §1, §2
# P. aeruginosa ATCC 27853 = experiment: Spontaneous frequency of resistance; settings: 24 h
# Method: as §1, §2
# [7] = test system: E. coli ATCC 25922 wild type and mutants; experiment: MIC, wild type and GSK2251052 resistant mutants; settings: Escherichia coli
# Method: as §1
# (§3) Susceptibility tests were performed following the recommendations for aerobic bacteria (M7-A7) from the Clinical and Laboratories Standards Institute (CLSI).
# (§4) Laboratory generated mutants resistant to GSK2251052 contain mutations in the editing domain of LeuRS. Six to ten GSK2251052 resistant colonies of E. coli ATCC 25922, K. pneumoniae ATCC 13883 and P. aeruginosa ATCC 27853 were selected for further analysis and their MICs to GSK2251052 were determined (Table 4-7).
# [8] = test system: K. pneumoniae ATCC 13883 wild type and mutants; experiment: MIC, wild type and GSK2251052 resistant mutants; settings: Klebsiella pneumoniae
# Method: as §1, §3, §4
# [9] = test system: P. aeruginosa ATCC 27853 wild type and mutants; experiment: MIC, wild type and GSK2251052 resistant mutants; settings: Pseudomonas aeruginosa
# Method: as §1, §3, §4
# [10] = test system: E. coli ATCC 25922, K. pneumoniae ATCC 13883 and P. aeruginosa ATCC 27853; experiment: MIC, three strains and their mutants summarised; settings: MIC in E. coli, P. aeruginosa and K. pneumoniae mutants versus wild-type
# Method: as §1, §3, §4
# GSK2251052 resistant mutants were not cross-resistant to commercial antibiotics.
Compound,MIC90 (Enterobacteriaceae) [µg/mL],MIC90 (E. coli (WT)) [µg/mL],MIC90 (E. coli (ESBL)) [µg/mL],MIC90 (Klebsiella spp. (WT)) [µg/mL],MIC90 (Klebsiella spp. (ESBL)) [µg/mL],MIC90 (Klebsiella spp. (KPC)) [µg/mL],MIC90 [1] [µg/mL],MIC90 [2] [µg/mL],MIC90 [3] [µg/mL],MIC90 [4] [µg/mL],MIC90 [5] [µg/mL],MIC90 [6] [µg/mL],MIC90 (Proteus mirabilis (WT)) [µg/mL],MIC90 (Proteus vulgaris (WT)) [µg/mL],Frequency of Resistance (E. coli ATCC 25922; 4 X MIC),Frequency of Resistance (E. coli ATCC 25922; 10 X MIC),Frequency of Resistance (K. pneumoniae ATCC 13883; 4 X MIC),Frequency of Resistance (K. pneumoniae ATCC 13883; 10 X MIC),Frequency of Resistance (P. aeruginosa ATCC 27853; 4 X MIC),Frequency of Resistance (P. aeruginosa ATCC 27853; 10 X MIC),further results
C[C@H]1COc2c(N3CCN(C)CC3)c(F)cc3c(=O)c(C(=O)O)cn1c23 [Levofloxacin],16,16,> 16,4,> 16,> 16,≤ 0.5,16,≤ 0.5,16,8,> 16,8,≤ 5,2 × 10^−8,<5 × 10^−9,2 × 10^−7,<3 × 10^−9,1 × 10^−7,<1 × 10^−9,MIC90 (Providencia spp.(all)): > 16 µg/mL; MIC90 (S. marcescens (AmpC)): 4 µg/mL; % susceptible (P. aeruginosa): 63.7%
O=C(O)c1cn(C2CC2)c2cc(N3CCNCC3)c(F)cc2c1=O [Ciprofloxacin],–,–,–,–,–,–,–,–,–,–,–,–,–,–,2 × 10^−8,<4 × 10^−9,5 × 10^−7,<5 × 10^−9,1 × 10^−8,<1 × 10^−9,"MIC ([7]; ATCC25922, E wt, read-out: MICs): 0.008 µg/mL; MIC ([7]; ATCC25922, read-out: MICs, mutant E 101): 0.008 µg/mL; MIC ([7]; ATCC25922, read-out: MICs, mutant E 102): 0.008 µg/mL; MIC ([7]; ATCC25922, read-out: MICs, mutant E 107): 0.015 µg/mL; MIC ([8]; ATCC13883, K wt., read-out: MICs): 0.125 µg/mL; MIC ([8]; ATCC13883, read-out: MICs, mutant K 104): 0.03 µg/mL; MIC ([8]; ATCC13883, read-out: MICs, mutant K 105): 0.06 µg/mL; MIC ([8]; ATCC13883, read-out: MICs, mutant K 107): 0.06 µg/mL; MIC ([8]; ATCC13883, read-out: MICs, mutant K 108): 0.03 µg/mL; MIC ([8]; ATCC13883, read-out: MICs, mutant K 110): 0.03 µg/mL; MIC ([9]; ATCC27853, P wt., read-out: MICs): 0.5 µg/mL; MIC ([9]; ATCC27853, read-out: MICs, mutant P 101): 1 µg/mL; MIC ([9]; ATCC27853, read-out: MICs, mutant P106): 1 µg/mL; MIC ([9]; ATCC27853, read-out: MICs, mutant P108): 0.5 µg/mL; cross-resistance of GSK2251052 resistant mutants [10]: did not have any significant difference in MIC values than wild-type"
C[C@@H](O)[C@H]1C(=O)N2C(C(=O)O)=C(S[C@@H]3CN[C@H](C(=O)N(C)C)C3)[C@H](C)[C@H]12 [Meropenem],–,–,–,–,–,–,–,–,–,–,–,–,–,–,<4 × 10^−9,<4 × 10^−9,<3 × 10^−9,<3 × 10^−9,7 × 10^−7,<1 × 10^−9,% susceptible (P. aeruginosa): 79.3%
CC1(C)S[C@@H]2[C@H](NC(=O)[C@H](N)c3ccccc3)C(=O)N2[C@H]1C(=O)O [Ampicillin],> 64,> 64,> 64,> 64,> 64,> 64,> 64,> 64,> 64,> 64,> 64,> 64,> 64,> 64,–,–,–,–,–,–,MIC90 (Providencia spp.(all)): > 64 µg/mL; MIC90 (S. marcescens (AmpC)): > 64 µg/mL
